Here are results for 8 molecules from US5716964A, “Tetrazolyl substituted imidazo[1,2-a]pyridinylalkyl compounds for treatment of neurotoxic injury” (G.D. Searle & Co., priority 1995, dated 1998).

As a reminder, the Ki is a measure of affinity in units of concentration, obtained from inhibition or displacement.

Structures are written as SMILES. Structures can show the parent of a compound that is named as a salt. Bounds are passed on as bounds.

One series addresses AMPA (QUIS) receptor. The series is described as follows: [3H]AMPA (QUIS) binding assay. The conditions noted are these: [3H]AMPA 10 nM, 100 mM KSCN, SPM, 0-4 °C, 10 min; read-out: Ki IC50 Binding, AMPA. The procedure:
Synaptic plasma membranes (SPM) were prepared as previously described [Monahan, J. B. and Michel, J., "Identification and Characterization of an N-methyl-D-aspartate-specific L[^3 H]glutamate Recognition Site in Synaptic Plasma Membranes, J. Neurochem., 48, 1699-1708 (1987)]. The SPM were stored at a concentration of 10-15 mg/ml in 0.32M sucrose, 0.5 mM EDTA, 1mM MgSO4, 5 mM Tris/SO4, pH 7.4, under liquid nitrogen. The identity and purity of the subcellular fractions were confirmed by both electron microscopy and marker enzymes. Protein concentrations were determined by using a modification of the method of Lowry [Ohnishi, S. T. and Barr, J. K., "A Simplified Method of Quantitating Proteins Using the Biuret and Phenol Reagents", Anal. Biochem., 86, 193-197 (1978)]. The SPM were treated identically for the [^3 H]AMPA (QUIS), [^3 H]kainate and sodium-dependent L-[^3 H]-glumatate binding assays. The SPM were thawed at room temperature, diluted twenty-fold with 50 mM Tris/acetate, pH 7.4, incubated at 37° C. for 30 minutes, and centrifuged at 100,000 g for 15 minutes. The dilution, incubation, and centrifugation was repeated a total of three times. Prior to use in the NMDA specific L-[^3 H]-glutamate binding assay the SPM were thawed, diluted twenty fold with 50 mM Tris/acetate, pH 7.4 containing 0.04% (v/v) Triton X-100, incubated for 30 minutes at 37° C. and centrifuged as described above. The Triton X-100 treated membranes were washed with 50 mM Tris/acetate, pH 7.4 and centrifuged at 100,000 g for 15 minutes a total of four times. […] The basic procedure for the receptor subclass binding assays was similar. This general method involved adding the radioligand (12.5 nM L-[^3 H]glutamate; 0.5 nM [^3 H]kainate or 10 nM [^3 H]AMPA) to the appropriate concentration of the test compound and initiating the assay by the addition of ice cold synaptic plasma membranes (0.2-0.45 mg). The binding assays were performed in 1.5 mL centrifuge tubes with the total volume adjusted to 1.0 mL. Additions of test compounds were made in 50 mM Tris/acetate, pH 7.4 and incubations were carried out at 0°-4° C. The incubation time for the NMDA and the AMPA binding assays was 10 minutes, for the kainate binding assay 60 minutes and for the sodium-dependent glutamate binding assay 15 minutes. The AMPA binding assay contained 100 mM KSCN and the sodium-dependent glutamate binding assay contained 150 mM sodium acetate in addition to the previously described reagents. To terminate the incubation, the samples were centrifuged for 15 minutes at 12,000 g and 4° C. in a Beckman Microfuge 12. The supernatant was aspirated and the pelleted membranes dissolved in Beckman BTS-450 tissue solubilizer for a minimum of 6 hours at room temperature. Beckman MP scintillation cocktail containing 7 mL/l acetic acid was then added and the samples counted on a Beckman LS 5800 or 3801 liquid scintillation counter with automatic corrections for quenching and counting efficiency. Nonspecific binding was defined as the residual binding in the presence of either excess L-glutamate (0.1-0.4 mM), kainate (0.01 mM), or NMDA (0.5 mM), and was 15-25% of the total binding in the NMDA binding assay, 19-27% in the AMPA binding assay, 20-30% in the kainate binding assay and 10-15% in the sodium-dependent binding assay. Radioligand binding to the synaptic plasma membranes was analyzed using Scatchard and Hill transformations and the Ki values of the compounds determined using logit-log transformations. Calculations and regression analysis were performed using templates developed for Lotus 1, 2, 3 as previously described [Pullan, L. M. "Automated Radioligand Receptor Binding Analysis with Templates for Lotus", Computer Appln. Biosci., 3, 131 (1987)]. Binding results are reported in Table I for example compounds of the invention.

Series [1] deals with TCP (1-[1-(2-thienyl)cyclohexyl]piperidine) binding in rat brain synaptic membranes. The series is described as follows: TCP modulation assay ([3H]TCP binding). The note with it: printed in the column TCP Ki IC50. The procedure:
The effect on the TCP (1-[1-(2-thienyl)cyclohexyl]piperidine) binding was measured in rat brain synaptic membranes (SPM) prepared as previously described [J. B. Monahan & J. Michel; J. Neurochem. 48:1699-1708 (1987)]. Prior to their use in the binding assay, frozen SPM were thawed, diluted twenty fold with 50 mM Tris/acetate (pH 7.4 containing 0.04% (v/v) Triton X-100), incubated for 30 min. at 37° C. and centrifuged at 95,000×g for 15 min. The Triton X-100 treated SPM were washed with 5 mM Tris/HCl, pH 7.4 and centrifuged a total of six times. The compound of Example #7 was incubated at different concentrations with SPM (0.2-0.4 mg protein) and 2 nM tritiated TCP, in a total volume of 0.5 ml of 5 mM Tris/HCl buffer pH 7.4 at 25° C. for 60 min. The samples were filtered through glass fiber filters (Schleicher & Schuell #32) which have been pretreated with 0.05% (v/v) polyethylenimine, washed 4 times with 2 ml of ice-cold 5 mM Tris/HCl buffer, and then counted on a Beckman LS 5800 liquid scintillation counter with automatic corrections for quenching and counting efficiency. Inhibition of TCP binding was measured as a decrease in the binding in the presence of 0.05 mM L-glutamate. Non-specific binding was defined as the residual binding in the presence of […] phencyclidine.

Series [2] has as its system cGMP levels in cerebellum. The series is described as follows: Effect on cGMP levels in cerebellum. Type of series: in vivo, mouse (Swiss-Webster). The conditions noted are these: s.c. The procedure:
The purpose of this assay is to determine the extent of in vivo bioavailability and the potency as an NMDA antagonist of compound of the invention as compared to known NMDA antagonists, namely, 3(2-carboxypiperizine-4-yl)propyl-1-phosphonic acid (CPP~ and cis-4-phosphonomethyl-2-piperidinecarboxylic acid (CGS 19755). Male Swiss-Webster mice (17-24 g were injected sub-cutaneously (s.c.) with compound of the invention and the known NMDA antagonist standards 30 minutes prior to sacrifice by focussed microwave irradiation. Groups consisted of 7-10 mice. Compounds of Ex. #7 was dissolved in isotonic saline and all compounds were administered in a volume of 0.2 ml per mouse. Cerebella samples were extracted in IN HCl. Hydrochloric acid in extracts of the cerebellum were freeze-dried for assay of cGMP with a commercial RIA kit (NEN). Statistics (Dunett's t-test) were performed as described previously [P. L. Wood et al., Neurochem, 19, 975-982 (1980)]. ED50 values were calculated from log-logit transformation of the dose-response data.

The test system of series [3] is mice (tonic hindlimb extensor seizures). The series is described as follows: Anticonvulsant assay (electroconvulsive shock, tonic hindlimb extensor seizures). In kind it is in vivo, mouse (CD-1). The conditions noted are these: s.c., 30 min prior to ECS. The text has this:
(§1) 6, 351-353 (1977)]. […] The screens were then slowly inverted. […] The current was held constant at 15 mA. […] There were 10 mice in each treatment group.

In series [4] the test system is Mongolian gerbils, CA1 region of the hippocampus. The series is described as follows: Forebrain ischemia assay (bilateral carotid occlusion, CA1 hippocampal neuron count). Type of series: in vivo, Mongolian gerbil. The conditions noted are these: vs control, Mann-Whitney U test. The procedure:
This assay was used to determine the extent of protection afforded by compound of the invention to neural brain cells subjected to ischemic conditions. Male Mongolian gerbils, 50-70 gm, were used as subjects. Compound No. 7 (30 mg/kg) was injected i.p. 30 minutes prior to carotid occlusion into 6 gerbils […]. In preparation for surgical procedures, the animals were lightly anesthetized with methoxyflurane and placed upside down on a heated pad with their snout within a nosecone. A 70:30 mixture of nitrous oxide and oxygen containing 0.5% halothane was circulated through the nosecone to provide continuous anesthesia throughout the surgical procedure. A midline incision was made in the neck and the carotid arteries were exposed. A length of suture thread was placed under each carotid. […] Quantification of the resulting lesion is made by counting the pyramidal cell somata in a 0.5 mm length of CAl of the hippocampus on the section corresponding to P 1.7 mm in the gerbil brain atlas.
Normal cell count in this region of the hippocampus in unoperated gerbils is 146±2. The effects of compound of Ex. #7 were assessed by comparing the number of neural cells found in the hippocampus of subjects treated with Ex. #7 compound with the cell number found in the appropriate control groups. […]

For the next series, the system named is mice (motor function). The series is described as follows: Inverted screen test for motor impairment. In kind it is in vivo, mouse (CD-1).
Excerpt: as §1

The next series relates to NMDA. The conditions noted are these: Murphy et al. 1987; cited from earlier work.

As for `O=C(O)c1cn2cc(CP(=O)(O)O)ccc2n1` [Example 13, 6-(phosphonomethyl)imidazo[1,2-a]pyridine-2-carboxylic acid], the Ki on AMPA (QUIS) receptor was above 300 µM.

For the molecule `O=C(O)c1cn2cccc(CP(=O)(O)O)c2n1` [Example 23, 8-(phosphonomethyl)imidazo[1,2-a]pyridine-2-carboxylic acid], the inhibition constant Ki on AMPA (QUIS) receptor was above 300 µM.

Consider `O=C(O)c1cn2c(C(O)P(=O)(O)O)cccc2n1` (stereo not drawn) [Example 57, 5-(hydroxyphosphonomethyl)imidazo[1,2-a]pyridine-2-carboxylic acid, monohydrochloride], for which, in series [1], the “TCP binding, result in words” value is “antag”. Further, the Ki at AMPA (QUIS) receptor was above 300 µM.

As to `Cc1c(C(=O)O)nc2c(CP(=O)(O)O)cccn12` [Example 67, 3-methyl-8-(phosphonomethyl)imidazo[1,2-a]pyridine-2-carboxylic acid, monohydrochloride], the Ki at AMPA (QUIS) receptor is above 300 µM.

As for `O=C(O)c1cn2c(CP(=O)(O)O)cccc2n1` [Example 7, 5-(phosphonomethyl)imidazo[1,2-a]pyridine-2-carboxylic acid], the “brain bioavailability (decrease of cGMP in mouse cerebellum), in words” value in series [2] was “brain bioavailable”. Also, the “potency compared with CPP, in words” value in series [2] (decrease in cerebellar cGMP) is on record as “in the same range of potency as the known NMDA antagonist CPP”. Besides, at AMPA (QUIS) receptor, the Ki was above 300 µM. The “protection against tonic hindlimb extensor seizures, in words” value in series [3] was “protected against tonic hindlimb extensor seizures in a dose-dependent fashion”. Also, the “hippocampal cell loss after ischemia, in words” value in series [4] is recorded as “significantly reduced”. Moreover, the “Exhibiting Motor Impairments” value in the series with mice (motor function) (10 mg/kg s.c.) was 30 % of Mice; in the series on mice (motor function) (32 mg/kg s.c.) it was 50 % of Mice; in the series with mice (motor function) (56 mg/kg s.c.), 70 % of Mice; in the series with mice (motor function) (100 mg/kg s.c.), 90 % of Mice. Moreover, the “impairment of motor function, in words” value with mice (motor function) (s.c., inverted screen) is “impaired motor function in a similar dose range”.

Regarding `O=C(O)C1CN(CCCP(=O)(O)O)CCN1` (stereo not drawn) [CPP, 3-(2-carboxypiperazin-4-yl)propyl-1phosphonic acid], the “NMDA antagonism, in words” value with NMDA was “potent and selective NMDA antagonist”.

Take `O=C(O)c1cn2c(CP(=O)(O)O)c(Cl)ccc2n1` [Example 30, 6-chloro-5-(phosphonomethyl)imidazo[1,2-a]pyridine-2-carboxylic acid]: at AMPA (QUIS) receptor, the Ki was above 300 µM.

As for `O=C(O)c1cn2ccc(CP(=O)(O)O)cc2n1` [Example 18, 7-(phosphonomethyl)imidazo[1,2-a]pyridine-2-carboxylic acid], at AMPA (QUIS) receptor, the Ki is above 300 µM.
